According to ChEMBL document CHEMBL1649226, “Species identification and antifungal susceptibility patterns of species belonging to Aspergillus section Nigri” (2009):
Starred links: 1 amine or outer side, 2 acyl side, 3 side chain; linkers in the order of their positions; H or OH if unused. Positions of bridges follow the written chain, without caps; N, C: chain ends. Non-standard residues stand in square brackets, D forms with d. Residues, ends and D or L forms follow the SMILES beside them. *: point of attachment. hTyr(3S-OH,4S-OH,3'-OSO3H) = N[C@H](C(=O)O)[C@H](O)[C@@H](O)c1ccc(O)c(OS(=O)(=O)O)c1; Orn(4R-OH,5R-OH) = O=C([C@H](C[C@@H](O)[C@@H](O)N[*:3])N[*:1])[*:2]; Pro(3S-OH,4S-Me) = C[C@H]1CN[C@H](C(=O)O)[C@H]1O; X1 = CCCCCOc1ccc(-c2cc(-c3ccc(C(=O)*)cc3)no2)cc1; Gln(3R-OH) = NC(=O)C[C@@H](O)[C@H](N)C(=O)O; Hyp = O=C(O)[C@@H]1C[C@@H](O)CN1

What was measured:
Assay type in all cases: functional
Aspergillus tubingensis [1] = test: Antifungal activity against Aspergillus tubingensis isolate CM-3654 obtained from blood culture assessed as inhibition of hyphal growth after 48 hrs; conditions: isolate CM-3654, 48 h, read-out: MEC
Aspergillus tubingensis [2] = test: Antifungal activity against Aspergillus tubingensis isolate CM-3585 assessed as inhibition of hyphal growth after 48 hrs; conditions: isolate CM-3585, 48 h, read-out: MEC
Aspergillus tubingensis [3] = test: Antifungal activity against Aspergillus tubingensis isolate CM-3123 obtained from respiratory tract infection of patient assessed as inhibition of hyphal growth after 48 hrs; conditions: isolate CM-3123, 48 h, read-out: MEC
Aspergillus niger [4] = test: Antifungal activity against Aspergillus niger isolate CM-3506 obtained from respiratory tract infection of patient assessed as inhibition of hyphal growth after 48 hrs; conditions: isolate CM-3506, 48 h, read-out: MEC
Aspergillus tubingensis [5] = test: Antifungal activity against Aspergillus tubingensis isolate CM-4296 obtained from respiratory tract infection of patient assessed as inhibition of hyphal growth after 48 hrs; conditions: isolate CM-4296, 48 h, read-out: MEC
Aspergillus niger [6] = test: Antifungal activity against Aspergillus niger isolate CM-3236 obtained from respiratory tract infection of patient assessed as inhibition of hyphal growth after 48 hrs; conditions: isolate CM-3236, 48 h, read-out: MEC
Aspergillus niger [7] = test: Antifungal activity against Aspergillus niger isolate CM-4262 obtained from Ophthalmic assessed as inhibition of hyphal growth after 48 hrs; conditions: isolate CM-4262, 48 h, read-out: MEC
Aspergillus tubingensis [8] = test: Antifungal activity against Aspergillus tubingensis isolate CM-4352 obtained from respiratory tract infection of patient assessed as inhibition of hyphal growth after 48 hrs; conditions: isolate CM-4352, 48 h, read-out: MEC
Aspergillus tubingensis [9] = test: Antifungal activity against Aspergillus tubingensis isolate CM-4899 obtained from respiratory tract infection of patient assessed as inhibition of hyphal growth after 48 hrs; conditions: isolate CM-4899, 48 h, read-out: MEC
Aspergillus niger [10] = test: Antifungal activity against Aspergillus niger isolate CM-3551 obtained from respiratory tract infection of patient assessed as inhibition of hyphal growth after 48 hrs; conditions: isolate CM-3551, 48 h, read-out: MEC
Aspergillus foetidus [11] = test: Antifungal activity against Aspergillus foetidus isolate CM-5264 obtained from respiratory tract infection of patient assessed as inhibition of hyphal growth after 48 hrs; conditions: isolate CM-5264, 48 h, read-out: MEC
Aspergillus tubingensis [12] = test: Antifungal activity against Aspergillus tubingensis isolate CM-4005 assessed as inhibition of hyphal growth after 48 hrs; conditions: isolate CM-4005, 48 h, read-out: MEC
Aspergillus foetidus [13] = test: Antifungal activity against Aspergillus foetidus isolate CM-4002 assessed as inhibition of hyphal growth after 48 hrs; conditions: isolate CM-4002, 48 h, read-out: MEC
Aspergillus tubingensis [14] = test: Antifungal activity against Aspergillus tubingensis isolate CM-3507 obtained from respiratory tract infection of patient assessed as inhibition of hyphal growth after 48 hrs; conditions: isolate CM-3507, 48 h, read-out: MEC
Aspergillus tubingensis [15] = test: Antifungal activity against Aspergillus tubingensis isolate CM-4897 obtained from blood culture assessed as inhibition of hyphal growth after 48 hrs; conditions: isolate CM-4897, 48 h, read-out: MEC
Aspergillus tubingensis [16] = test: Antifungal activity against Aspergillus tubingensis isolate CM-3125 obtained from respiratory tract infection of patient assessed as inhibition of hyphal growth after 48 hrs; conditions: isolate CM-3125, 48 h, read-out: MEC
Aspergillus tubingensis [17] = test: Antifungal activity against Aspergillus tubingensis isolate CM-5094 obtained from respiratory tract infection of patient assessed as inhibition of hyphal growth after 48 hrs; conditions: isolate CM-5094, 48 h, read-out: MEC
Aspergillus tubingensis [18] = test: Antifungal activity against Aspergillus tubingensis isolate CM-4264 obtained from blood culture assessed as inhibition of hyphal growth after 48 hrs; conditions: isolate CM-4264, 48 h, read-out: MEC
Aspergillus niger [19] = test: Antifungal activity against Aspergillus niger isolate CM-4004 obtained from assessed as inhibition of hyphal growth after 48 hrs; conditions: isolate CM-4004, 48 h, read-out: MEC
Aspergillus niger [20] = test: Antifungal activity against Aspergillus niger isolate CM-4316 obtained from respiratory tract infection of patient assessed as inhibition of hyphal growth after 48 hrs; conditions: isolate CM-4316, 48 h, read-out: MEC
Aspergillus tubingensis [21] = test: Antifungal activity against Aspergillus tubingensis isolate CM-4003 assessed as inhibition of hyphal growth after 48 hrs; conditions: isolate CM-4003, 48 h, read-out: MEC
Aspergillus tubingensis [22] = test: Antifungal activity against Aspergillus tubingensis isolate CM-4001 assessed as inhibition of hyphal growth after 48 hrs; conditions: isolate CM-4001, 48 h, read-out: MEC
Aspergillus niger [23] = test: Antifungal activity against Aspergillus niger isolate CM-3586 obtained from catheter of patient assessed as inhibition of hyphal growth after 48 hrs; conditions: isolate CM-3586, 48 h, read-out: MEC
Aspergillus tubingensis [24] = test: Antifungal activity against Aspergillus tubingensis isolate CM-3177 obtained from respiratory tract infection of patient assessed as inhibition of hyphal growth after 48 hrs; conditions: isolate CM-3177, 48 h, read-out: MEC
Aspergillus tubingensis [25] = test: Antifungal activity against Aspergillus tubingensis isolate CM-4688 obtained from respiratory tract infection of patient assessed as inhibition of hyphal growth after 48 hrs; conditions: isolate CM-4688, 48 h, read-out: MEC
Aspergillus tubingensis [26] = test: Antifungal activity against Aspergillus tubingensis isolate CM-4000 by broth dilution method assessed as inhibition of hyphal growth after 48 hrs; conditions: isolate CM-4000, 48 h, read-out: MEC
Aspergillus niger [27] = test: Antifungal activity against Aspergillus niger isolate CM-5095 obtained from respiratory tract infection of patient assessed as inhibition of hyphal growth after 48 hrs; conditions: isolate CM-5095, 48 h, read-out: MEC
Aspergillus niger [28] = test: Antifungal activity against Aspergillus niger isolate CM-3641 obtained from respiratory tract infection of patient assessed as inhibition of hyphal growth after 48 hrs; conditions: isolate CM-3641, 48 h, read-out: MEC
Aspergillus foetidus [29] = test: Antifungal activity against Aspergillus foetidus isolate CM-4995 obtained from prosthesis assessed as inhibition of hyphal growth after 48 hrs; conditions: isolate CM-4995, 48 h, read-out: MEC
Aspergillus tubingensis [30] = test: Antifungal activity against Aspergillus tubingensis isolate CM-3810 obtained from respiratory tract infection of patient assessed as inhibition of hyphal growth after 48 hrs; conditions: isolate CM-3810, 48 h, read-out: MEC
Aspergillus niger [31] = test: Antifungal activity against Aspergillus niger isolate CM-3257 obtained from respiratory tract infection of patient assessed as inhibition of hyphal growth after 48 hrs; conditions: isolate CM-3257, 48 h, read-out: MEC
Aspergillus niger [32] = test: Antifungal activity against Aspergillus niger isolate CM-4213 obtained from respiratory tract infection of patient assessed as inhibition of hyphal growth after 48 hrs; conditions: isolate CM-4213, 48 h, read-out: MEC
Aspergillus niger [33] = test: Antifungal activity against Aspergillus niger isolate CM-3636 obtained from respiratory tract infection of patient assessed as inhibition of hyphal growth after 48 hrs; conditions: isolate CM-3636, 48 h, read-out: MEC
Aspergillus niger [34] = test: Antifungal activity against Aspergillus niger isolate CM-3672 obtained from cutaneous layer of patient assessed as inhibition of hyphal growth after 48 hrs; conditions: isolate CM-3672, 48 h, read-out: MEC

With CCCCCOc1ccc(-c2cc(-c3ccc(C(=O)N[C@H]4C[C@@H](O)[C@@H](O)NC(=O)[C@@H]5[C@@H](O)[C@@H](C)CN5C(=O)[C@H]([C@H](O)CC(N)=O)NC(=O)[C@H]([C@H](O)[C@@H](O)c5ccc(O)c(OS(=O)(=O)O)c5)NC(=O)[C@@H]5C[C@@H](O)CN5C(=O)[C@H]([C@@H](C)O)NC4=O)cc3)no2)cc1 [MICAFUNGIN] (X1-[Orn(4R-OH,5R-OH)]T[Hyp][hTyr(3S-OH,4S-OH,3'-OSO3H)][Gln(3R-OH)][Pro(3S-OH,4S-Me)]; lactam 1-C) the minimal effective concentration (Aspergillus tubingensis [1]) was 0.03 µg/mL, the minimal effective concentration (Aspergillus tubingensis [2]) was 0.03 µg/mL and the minimal effective concentration (Aspergillus tubingensis [3]) was 0.03 µg/mL. For the same compound, the minimal effective concentration (Aspergillus niger [4]) was 0.03 µg/mL, the minimal effective concentration (Aspergillus tubingensis [5]) was 0.03 µg/mL and the minimal effective concentration (Aspergillus niger [6]) was 0.03 µg/mL. The minimal effective concentration (Aspergillus niger [7]) was 0.03 µg/mL, the minimal effective concentration (Aspergillus tubingensis [8]) was 0.03 µg/mL and the minimal effective concentration (Aspergillus tubingensis [9]) was 0.05 µg/mL. It also gave a minimal effective concentration (Aspergillus niger [10]) of 0.03 µg/mL, a minimal effective concentration (Aspergillus foetidus [11]) of 0.03 µg/mL and a minimal effective concentration (Aspergillus tubingensis [12]) of 0.03 µg/mL. It also gave a minimal effective concentration (Aspergillus foetidus [13]) of 0.03 µg/mL, a minimal effective concentration (Aspergillus tubingensis [14]) of 0.03 µg/mL and a minimal effective concentration (Aspergillus tubingensis [15]) of 0.03 µg/mL. It also gave a minimal effective concentration (Aspergillus tubingensis [16]) of 0.03 µg/mL, a minimal effective concentration (Aspergillus tubingensis [17]) of 0.03 µg/mL and a minimal effective concentration (Aspergillus tubingensis [18]) of 0.03 µg/mL. It also gave a minimal effective concentration (Aspergillus niger [19]) of 0.03 µg/mL, a minimal effective concentration (Aspergillus niger [20]) of 0.03 µg/mL and a minimal effective concentration (Aspergillus tubingensis [21]) of 0.03 µg/mL. It also gave a minimal effective concentration (Aspergillus tubingensis [22]) of 0.03 µg/mL, a minimal effective concentration (Aspergillus niger [23]) of 0.03 µg/mL and a minimal effective concentration (Aspergillus tubingensis [24]) of 0.03 µg/mL. It also gave a minimal effective concentration (Aspergillus tubingensis [25]) of 0.03 µg/mL, a minimal effective concentration (Aspergillus tubingensis [26]) of 0.03 µg/mL and a minimal effective concentration (Aspergillus niger [27]) of 0.03 µg/mL. The minimal effective concentration (Aspergillus niger [28]) was 0.03 µg/mL, the minimal effective concentration (Aspergillus foetidus [29]) was 0.03 µg/mL and the minimal effective concentration (Aspergillus tubingensis [30]) was 0.03 µg/mL. For the same compound, the minimal effective concentration (Aspergillus niger [31]) was 0.03 µg/mL, the minimal effective concentration (Aspergillus niger [32]) was 0.03 µg/mL and the minimal effective concentration (Aspergillus niger [33]) was 0.03 µg/mL. It also gave a minimal effective concentration (Aspergillus niger [34]) of 0.03 µg/mL.
